According to PubChem BioAssay AID2060896 (Molecular Pharmacology Branch, DTP, NCI, 2025):

Tested on: 941728-121-R-J1-PDC complex spheroid viability
Experiment: Anticancer human tumor 941728-121-R-J1-PDC patient-derived lung adenocarcinoma cell line growth inhibition [RAS]
Details: for IC50: curve of first compound; for viability, T/C: stronger effect = lower value
Method in brief: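 Multi-cell-type spheroids: tumor cells plus HUVEC endothelial cells and mesenchymal stem cells. RAS-pathway inhibitors were combined with targeted agents, each dosed in half-log steps down from clinical Cmax, or from 10 microM when Cmax was unknown.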

[1] = second compound 0.000949 µM, first compound 0.0316 µM
[2] = second compound 0.000949 µM, first compound 0.1 µM
[3] = second compound 0.000949 µM, first compound 0.316 µM
[4] = second compound 0.000949 µM, first compound 1 µM
[5] = second compound 0.000949 µM, first compound 3.16 µM
[6] = second compound 0.000949 µM, first compound 10 µM
[7] = second compound 0.003 µM, first compound 0.0316 µM
[8] = second compound 0.003 µM, first compound 0.1 µM
[9] = second compound 0.003 µM, first compound 0.316 µM
[10] = second compound 0.003 µM, first compound 1 µM
[11] = second compound 0.003 µM, first compound 3.16 µM
[12] = second compound 0.003 µM, first compound 10 µM
[13] = second compound 0.00949 µM, first compound 0.0316 µM
[14] = second compound 0.00949 µM, first compound 0.1 µM
[15] = second compound 0.00949 µM, first compound 0.316 µM
[16] = second compound 0.00949 µM, first compound 1 µM
[17] = second compound 0.00949 µM, first compound 3.16 µM
[18] = second compound 0.00949 µM, first compound 10 µM
[19] = second compound 0.03 µM, first compound 0.0316 µM
[20] = second compound 0.03 µM, first compound 0.1 µM
[21] = second compound 0.03 µM, first compound 0.316 µM
[22] = second compound 0.03 µM, first compound 1 µM
[23] = second compound 0.03 µM, first compound 3.16 µM
[24] = second compound 0.03 µM, first compound 10 µM
[25] = second compound 0.0949 µM, first compound 0.0316 µM
[26] = second compound 0.0949 µM, first compound 0.1 µM
[27] = second compound 0.0949 µM, first compound 0.316 µM
[28] = second compound 0.0949 µM, first compound 1 µM
[29] = second compound 0.0949 µM, first compound 3.16 µM
[30] = second compound 0.0949 µM, first compound 10 µM
[31] = second compound 0.3 µM, first compound 0.0316 µM
[32] = second compound 0.3 µM, first compound 0.1 µM
[33] = second compound 0.3 µM, first compound 0.316 µM
[34] = second compound 0.3 µM, first compound 1 µM
[35] = second compound 0.3 µM, first compound 3.16 µM
[36] = second compound 0.3 µM, first compound 10 µM
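Note: spheroids exposed to compounds for 7 days before readout.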
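Throughout, for viability, T/C: 100% = DMSO vehicle control viability.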

`CC(=O)OC12COC1CC(O)C1(C)C(=O)C(O)C3=C(C)C(OC(=O)C(O)C(NC(=O)OC(C)(C)C)c4ccccc4)CC(O)(C(OC(=O)c4ccccc4)C21)C3(C)C` (stereo unspecified) + CCn1c(-c2cccnc2C(C)OC)c2c3cc(ccc31)N1CCOC(CC(NC(=O)C(C(C)C)N(C)C(=O)C3(F)CCN(C(=O)C#CC(C)(C)N(C)C)CC3)C(=O)N3CCCC(N3)C(=O)OCC(C)(C)C2)C1 gave an IC50 (second compound 0.000949 µM) of less than 31.6 nM, an IC50 (second compound 0.003 µM) of less than 31.6 nM and an IC50 (second compound 0.00949 µM) of less than 31.6 nM. The IC50 (second compound 0.03 µM) was less than 31.6 nM, the IC50 (second compound 0.0949 µM) was less than 31.6 nM and the IC50 (second compound 0.3 µM) was less than 31.6 nM. For the same compound, the viability, T/C [1] was 18.3%, the viability, T/C [2] was 15.4% and the viability, T/C [3] was 11.9%. The viability, T/C [4] was 15.6%, the viability, T/C [5] was 15.1% and the viability, T/C [6] was 14.2%. The viability, T/C [7] was 17.3%, the viability, T/C [8] was 15.6% and the viability, T/C [9] was 13.1%. The viability, T/C [10] was 14.4%, the viability, T/C [11] was 14.9% and the viability, T/C [12] was 11.1%. It also gave a viability, T/C [13] of 16.9%, a viability, T/C [14] of 13.9% and a viability, T/C [15] of 13.1%. The viability, T/C [16] was 13.8%, the viability, T/C [17] was 12.7% and the viability, T/C [18] was 12.7%. For the same compound, the viability, T/C [19] was 17.6%, the viability, T/C [20] was 16.2% and the viability, T/C [21] was 14.4%. For the same compound, the viability, T/C [22] was 13%, the viability, T/C [23] was 14.6% and the viability, T/C [24] was 16.3%. The viability, T/C [25] was 15.9%, the viability, T/C [26] was 15.1% and the viability, T/C [27] was 16.1%. For the same compound, the viability, T/C [28] was 15.3%, the viability, T/C [29] was 13.6% and the viability, T/C [30] was 17.3%. For the same compound, the viability, T/C [31] was 16.8%, the viability, T/C [32] was 17.5% and the viability, T/C [33] was 16.6%. For the same compound, the viability, T/C [34] was 15.9%, the viability, T/C [35] was 15.8% and the viability, T/C [36] was 16.9%.

For `NC1c2ccccc2OC12CCN(c1cnc3c(N4CCCc5ncccc54)n[nH]c3n1)CC2` (stereo unspecified) + CCn1c(-c2cccnc2C(C)OC)c2c3cc(ccc31)N1CCOC(CC(NC(=O)C(C(C)C)N(C)C(=O)C3(F)CCN(C(=O)C#CC(C)(C)N(C)C)CC3)C(=O)N3CCCC(N3)C(=O)OCC(C)(C)C2)C1, the IC50 (second compound 0.000949 µM) was less than 31.6 nM, the IC50 (second compound 0.003 µM) was less than 31.6 nM and the IC50 (second compound 0.00949 µM) was less than 31.6 nM. It also gave an IC50 (second compound 0.03 µM) of less than 31.6 nM, an IC50 (second compound 0.0949 µM) of less than 31.6 nM and an IC50 (second compound 0.3 µM) of less than 31.6 nM. It also gave a viability, T/C [1] of 18.5%, a viability, T/C [2] of 17.7% and a viability, T/C [3] of 12.8%. The viability, T/C [4] was 17.6%, the viability, T/C [5] was 16.6% and the viability, T/C [6] was 13.9%. The viability, T/C [7] was 16.5%, the viability, T/C [8] was 15.7% and the viability, T/C [9] was 15.1%. For the same compound, the viability, T/C [10] was 15.9%, the viability, T/C [11] was 17.1% and the viability, T/C [12] was 13.5%. For the same compound, the viability, T/C [13] was 17.8%, the viability, T/C [14] was 15.3% and the viability, T/C [15] was 17.9%. The viability, T/C [16] was 18.3%, the viability, T/C [17] was 16.7% and the viability, T/C [18] was 15.4%. For the same compound, the viability, T/C [19] was 19.2%, the viability, T/C [20] was 17.6% and the viability, T/C [21] was 18.8%. It also gave a viability, T/C [22] of 17.1%, a viability, T/C [23] of 16.1% and a viability, T/C [24] of 20.3%. For the same compound, the viability, T/C [25] was 19.7%, the viability, T/C [26] was 19.4% and the viability, T/C [27] was 19%. The viability, T/C [28] was 18.9%, the viability, T/C [29] was 16% and the viability, T/C [30] was 20.2%. The viability, T/C [31] was 20.2%, the viability, T/C [32] was 20.5% and the viability, T/C [33] was 20.8%. The viability, T/C [34] was 18.2%, the viability, T/C [35] was 18.6% and the viability, T/C [36] was 22.6%.

`Nc1ccn(C2OC(CO)C(O)C2(F)F)c(=O)n1` (stereo unspecified) + CCn1c(-c2cccnc2C(C)OC)c2c3cc(ccc31)N1CCOC(CC(NC(=O)C(C(C)C)N(C)C(=O)C3(F)CCN(C(=O)C#CC(C)(C)N(C)C)CC3)C(=O)N3CCCC(N3)C(=O)OCC(C)(C)C2)C1 showed an IC50 (second compound 0.000949 µM) of less than 3.16 nM, an IC50 (second compound 0.003 µM) of less than 3.16 nM and an IC50 (second compound 0.00949 µM) of less than 3.16 nM. For the same compound, the IC50 (second compound 0.03 µM) was less than 3.16 nM, the IC50 (second compound 0.0949 µM) was less than 3.16 nM and the IC50 (second compound 0.3 µM) was less than 3.16 nM. The viability, T/C (second compound 0.000949 µM, first compound 0.00316 µM) was 23.9%, the viability, T/C (second compound 0.000949 µM, first compound 0.01 µM) was 20.1% and the viability, T/C [1] was 18.7%. It also gave a viability, T/C [2] of 18.2%, a viability, T/C [3] of 19.5% and a viability, T/C [4] of 15.3%. The viability, T/C (second compound 0.003 µM, first compound 0.00316 µM) was 22%, the viability, T/C (second compound 0.003 µM, first compound 0.01 µM) was 18% and the viability, T/C [7] was 16.9%. It also gave a viability, T/C [8] of 19.5%, a viability, T/C [9] of 18.4% and a viability, T/C [10] of 13.2%. For the same compound, the viability, T/C (second compound 0.00949 µM, first compound 0.00316 µM) was 22.1%, the viability, T/C (second compound 0.00949 µM, first compound 0.01 µM) was 15.5% and the viability, T/C [13] was 18.8%. The viability, T/C [14] was 18.2%, the viability, T/C [15] was 20.9% and the viability, T/C [16] was 17%. The viability, T/C (second compound 0.03 µM, first compound 0.00316 µM) was 20.4%, the viability, T/C (second compound 0.03 µM, first compound 0.01 µM) was 20.4% and the viability, T/C [19] was 21.4%. It also gave a viability, T/C [20] of 17.4%, a viability, T/C [21] of 14.5% and a viability, T/C [22] of 17.7%. For the same compound, the viability, T/C (second compound 0.0949 µM, first compound 0.00316 µM) was 21.6%, the viability, T/C (second compound 0.0949 µM, first compound 0.01 µM) was 22.1% and the viability, T/C [25] was 20.1%. It also gave a viability, T/C [26] of 17.6%, a viability, T/C [27] of 19.5% and a viability, T/C [28] of 16.7%. The viability, T/C (second compound 0.3 µM, first compound 0.00316 µM) was 20.3%, the viability, T/C (second compound 0.3 µM, first compound 0.01 µM) was 20.6% and the viability, T/C [31] was 17.6%. For the same compound, the viability, T/C [32] was 18.1%, the viability, T/C [33] was 16.6% and the viability, T/C [34] was 19.2%.
